# Data taken from patent US4885301A, “Purinone derivatives which have bronchodilator, vasodilator and anti-allergic activities” (Smith Kline & French Laboratories Limited, priority 1987, dated 1989).
# Assays:
# [1] = tested on: guinea-pig isolated trachea; test: Anti-allergic activity in vitro: ovalbumin-induced contraction of isolated trachea from sensitized guinea pigs; design: species or system guinea pig (male Hartley); settings: for activity at 100 µM / Emax at 100 µM: Cavia porcellus, mean ± S.E.; for activity at 100 µM: 0.2 h, 30 min pretreatment, 12 minutes after OA (0.1 μg/ml), decline P<0.05, read-out: OA-induced contractile force as percentage of vehicle-treated control; for Emax at 100 µM: prior to OA challenge, N=4, read-out: reduction of basal tone, as a percentage of the maximum response to carbachol; for inhibition of antigen-induced contraction (in words): guinea-pig isolated trachea, 100 μM
# Protocol: The animals were injected intramuscularly with 0.7 ml of a 5.0% OA solution prepared in isotonic saline. Four weeks after sensitization tracheas were removed and cut into spiral strips. Each trachea was cut half, placed in 10-ml water-jacketed tissue baths and attached with biological tissue clips via silk suture to force displacement transducers for recording isometric tension. One half of each trachea served as a control for the corresponding drug-treated tissue. […] The tissue preparations were placed under 2 g passive tension and equilibrated for 60 minutes, during which time they were washed every 15 minutes with fresh buffer. Each tissue was pretreated for 45 minutes with meclofenamic acid (1 μM).
# Tissues were pretreated with the compound under test (100 μM), or vehicle (0.4 mM NaOH) for 30 minutes prior to the addition of OA. OA (0.1 μg/ml) was added to all tissues and the contraction was monitored for 15 minutes. […] To evaluate effects of the test compounds, the degree of contraction was calculated 2 and 12 minutes after the addition of OA. OA-induced contraction of drug-treated tissues was expressed as a percentage of the response of vehicle-treated, paired controls.
# Results are expressed as a mean ±S.E. of 4 experiments. Statistical significance of differences between the means of control and drug-treated groups was determined using a paired Student's t test.
# [2] = tested on: hindquarter vascular resistance; test: Vasodilatation in vivo: hindquarter blood flow in anaesthetised rats; design: species or system rat (male Wistar); settings: Rattus norvegicus, iv, bolus i.v., read-out: EDHQ50 (dose required to produce a 50% increase in hindquarter blood flow)
# Protocol: Male Wistar rats (300 g) were anaesthetised with a sodium 5-ethyl-5-(1-methylpropyl)-2-thiobarbiturate/sodium pentobarbitone mixture i.p. (62.5 and 22.5 mg/kg respectively). The trachea was cannulated and the rats breathed spontaneously air enriched with O2 (5 ml/min). Blood pressure was recorded from a carotid artery and a jugular vein was cannulated for the administration of compounds. The temperature of the animal was maintained at 37° C. by the use of an electric blanket. […] The perfusion circuit was primed with 5% bovine serum albumin dissolved in 0.9% sodium chloride solution, pH adjusted to 7.4. Initially the pump rate was set between 10 and 15 ml/min to match the hind quarter perfusion pressure to that of the systemic circulation. Once set the pressure remained unaltered for the rest of the experiment. A change in the speed of the pump (equivalent to hindquarter blood flow) was used to assess the changes in hindquarter vascular resistance.
# All compounds were administered as a bolus i.v. and from the dose response curves the dose required to produce a 50% increase in hindquarter blood flow (EDHQ50) was determined in μmoles/kg.
# [3] = tested on: antigen-induced bronchoconstriction; test: Anti-allergic activity in vivo: ovalbumin-induced bronchoconstriction in sensitized anesthetized guinea pigs; design: species or system guinea pig (adult male albino Hartley); settings: 100 μmol/kg intraduodenal
# Protocol: Adult male albino Hartley strain guinea pigs weighing 400-600 g were actively sensitized to OA according to the procedure hereinbefore described. To measure pulmonary mechanics, a polyethylene catheter was inserted into the trachea of anesthetized (sodium pentobarbital, 35 mg/kg, i.p.) animals and airflow was measured via a heated pneumotachograph in combination with a differential pressure transducer connected to the pneumotachograph. Airflow and transpulmonary pressure signals were fed into an on-line pulmonary mechanics computer which integrated the flow signal to obtain tidal volume. Total pulmonary resistance (RL) and dynamic lung compliance (CDYN) were calculated at isovolumetric points according to the method of Amdur and Mead (Am. J. Physiol. 192:364-368, 1958).
# A compound under test was dissolved in 25 mM NaHCO3 plus one drop of polyethylene glycol 400 to a concentration of 100 mM. Based on the weight of the animal, the appropriate amount of solution was removed and the volume brought up to 1 ml with 25 mM NaHCO3. For the intraduodenal administration of test compounds, a small midline incision was made in the abdomen, the duodenum was exposed, and a butterfly needle attached to plastic tubing was inserted. All solutions were adjusted to the same volume (1 ml) and administered through the butterfly needle and followed with 0.5 ml of distilled water. The needle was then removed and the abdominal incision was stapled to prevent heat loss.
# Aerosols of OA were generated to deliver approximately 0.375 μl/breath. Pressure, flow rate and sensitivity were set such that a maximum pleural pressure of 20 cm water was attained during inhalation. One hour after the administration of the test compounds, quinea pigs were challenged with 5 inhalations of OA (0.5 mg/ml) via the tracheal cannula and changes in CDYN and RL were monitored for 10 minutes. […]
# Results are expressed as a mean ± S.E. of 4 experiments. Statistical significance of differences between the means of control and drug-treated groups was determined using a unpaired Student's t test.
# [4] = tested on: U46619-induced bronchoconstriction; test: Bronchodilatation in vivo: U46619-induced bronchoconstriction in anaesthetised guinea-pigs; design: species or system guinea-pig (male Dunkin Hartley); settings: Cavia porcellus, iv; i.v. bolus; U46619 infused i.v. 2.5 nmol/min; peak inhibition; read-out: BD50 (dose required to reduce the U46619-induced bronchoconstriction by 50%)
# Protocol: Male guinea-pigs of the Dunkin Hartley strain (500-600 g) were anaesthetised with Sagatal (pentobarbital sodium) (60 mg/kg).
# The dose of compound required to reduce the U46619-induced bronchoconstriction by 50% is given as the BD50.
# [5] = target: T1, calmodulin insensitive cyclic GMP phosphodiesterase (Sus scrofa, UniProt A0A287B475); test: Inhibition of phosphodiesterase (PDE), cyclic GMP hydrolysis; assay type: biochemical, pig; settings: 1 μM cyclic GMP, pH 7.5, 37° C.
# T1 construct: Following dissection arteries were flash frozen in liquid nitrogen; from tissue; host or cells: pig pulmonary arteries or aortas, partially purified on DEAE-Sepharose, calmodulin-agarose and cibacron blue-agarose
# Protocol: (§1) Eight pig hearts/lungs were collected from the abattoir and kept on ice until the pulmonary arteries or aortas could be dissected and excess fat removed. 120 g of tissue was dissected. Unless otherwise stated all procedures were done at 4° C. Following dissection arteries were flash frozen in liquid nitrogen and stored at -70° C. until required. On the day of homogenisation, tissue was cooled with liquid nitrogen and broken into small pieces by striking with a hammer. The tissue was then homogenised in 15 mM BIS-TRIS, 1 μg/ml leupeptin and antipain, 2 μg/ml pepstatin A, 5 μM benzamidine, 2 mM EDTA (ethylenediaminetetraacetic acid) and 2 mM dithiothreitol, pH 6.5. Phenylmethanesulphonylfluoride (PMSF) was added to a final concentration of 50 μM just prior to homogenisation. The homogenate was then centrifuged for 20 minutes at 30,000 g. Supernatant was filtered firstly through glass wool and then a 0.45 μm filter. […] The column was washed with 150 mls of homogenisation buffer and PDE activities eluted with 150 ml of homogenisation buffer containing 100 mM sodium acetate. Six 25 ml fractions were collected, the flow rate throughout was 80 ml/hr.
# Fractions 2 and 3 were pooled and BIS-TRIS, MgCl2, CaCl2 added to final concentrations of 50 mM, 7 mM and 5 mM respectively. PMSF, leupeptin, antipain and pepstatin A were also added at the concentrations described above for these components. The pH of this pooled sample was corrected to 6.9.
# The sample was applied, at a flow rate of 3 ml/hr, to a tandem column set up. The first column in the tandem was a 5 ml calmodulin-agarose column (Sigma) and the second a 1.5 ml cibacron blue 3GA-agarose column (Sigma). Both columns were pre-equilibrated with 50 mM BIS-TRIS, 5 mM MgCl2, 5 mM CaCl2, 5 mM benzamidine, 2 mM dithiothreitol pH 6.9. Following application of the sample the columns were washed with 20 ml of equilibration buffer.
# The cibacron blue-agarose column was then disconnected and washed with a variety of buffers as indicated below (Buffer A=50 mM BIS-TRIS, 5 mM benzamidine, 2 mM dithiotheitol pH 7.0).
# 20 ml Buffer A+2M NaCl, 5 mM MgCl2
# 20 ml Buffer A+2M NaCl, 10 mM EDTA
# PDE activity bound to the column was eluted with eight 2.5 ml aliquots of Buffer A containing 2M NaCl, 10 mM EDTA and 10 mM cGMP. Fractions found to contain PDE activity were pooled and concentrated to approximately 1/3 the original volume by dialysis for 2 hr against Buffer A:glycerol (50:50) containing 15 mM 2-mercaptoethanol, 2 mM EDTA. After dialysis the concentration of cGMP in the fraction was reduced by treatment using a PD-10 column (Pharmacia) using dialysis buffer.
# The fraction produced was stored at -20° C. and for experiments diluted 50-fold and used as the source of PDE activity for the assay of compounds.
# The standard reaction mixture contained, in a final volume of 100 μl,
# 1 μM 3', 5'-cGMP (including 0.1 μCi ^3 H-cGMP)
# and buffered with 50 mM TRIS/5 mM MgCl2 pH 7.5. The reaction was initiated with enzyme, and was carried out at 37° C. for 5-10 minutes. The reaction was terminated by placing tubes in a boiling water bath for 2 minutes. […] Unreacted ^3 H-cGMP was washed from the column with 10×1 ml HEPES/NaCl buffer. Labelled […] was eluted into a scintillation vial with 6 ml 0.25M acetic acid and counted in a scintillation counter using 10 ml Instagel (Packard). […] Assays were performed in duplicate and values corrected for blanks of <2%.
# [6] = tested on: PDE activity isolated from pig pulmonary arteries or aortas; test: Properties of PDE activity: substrate kinetics; assay type: biochemical
# Protocol: as §1
# Fractions 2 and 3 were pooled and BIS-TRIS, MgCl2, CaCl2 added to final concentrations of 50 mM, 7 mM and 5 mM respectively. PMSF, leupeptin, antipain and pepstatin A were also added at the concentrations described above for these components. […]
SMILES,ED50 [4],IC50 [5],further results
"CCCOc1ccccc1-c1nc2nc[nH]c2c(=O)[nH]1 [Example 1, 2-(2-Propoxyphenyl)-6-purinone]",3.6 µmol/kg,–,"activity at 100 µM [1]: 46 ± 9%; Emax at 100 µM [1]: 17 ± 3%; inhibition of antigen-induced contraction (in words) [1]: inhibit antigen-induced contraction of the guinea-pig isolated trachea; ED50 [2]: 10.8 µmol/kg; antigen-induced bronchoconstriction (in words) ([3]; 60 minutes before OA challenge, N=4): significantly reduced antigen-induced bronchoconstriction; increase in total pulmonary resistance (RL) after OA challenge ([3]; 60 minutes before OA, 5 minutes after challenge, N=4, mean ± S.E., P<0.05 vs. vehicle (vehicle 162±40%)): 51±26%; dynamic lung compliance (CDYN) after OA challenge (in words) ([3]; 60 minutes before OA, 5 minutes after challenge, P<0.01 vs. vehicle): unchanged from baseline"
"CCOc1ccccc1-c1nc2nc[nH]c2c(=O)[nH]1 [Example 2, 2-(2-Ethoxyphenyl)-6-purinone]",6.5 µmol/kg,4.49 µM,–
"CCCCOc1ccccc1-c1nc2nc[nH]c2c(=O)[nH]1 [Example 3, 2-(2-Butoxyphenyl)-6-purinone]",3.8 µmol/kg,5.04 µM,–
"CC(C)COc1ccccc1-c1nc2nc[nH]c2c(=O)[nH]1 [Example 4, 2-(2-Isobutoxyphenyl)-6-purinone]",5.3 µmol/kg,1.74 µM,–
"CCCOc1ccccc1-c1nc2[nH]c(=O)[nH]c2c(=O)[nH]1 [Example 5, 2-(2-Propoxyphenyl)purine-6,8-dione]",1 µmol/kg,1.25 µM,activity at 100 µM [1]: 60 ± 4%; Emax at 100 µM [1]: 24 ± 7%; inhibition of antigen-induced contraction (in words) [1]: inhibit antigen-induced contraction of the guinea-pig isolated trachea; ED50 [2]: 3.7 µmol/kg
"CCOc1ccccc1-c1nc2[nH]c(=O)[nH]c2c(=O)[nH]1 [Example 7, 2-(2-Ethoxyphenyl)purine-6,8-dione]",3.6 µmol/kg,5.26 µM,–
"CCCCOc1ccccc1-c1nc2[nH]c(=O)[nH]c2c(=O)[nH]1 [Example 8, 2-(2-Butoxyphenyl)purine-6,8-dione]",1.5 µmol/kg,6.79 µM,–
"CC(C)COc1ccccc1-c1nc2[nH]c(=O)[nH]c2c(=O)[nH]1 [Example 9, 2-(2-Isobutoxypheny)purine-6,8-dione]",4.5 µmol/kg,3.64 µM,–
Nc1nc2c(ncn2[C@@H]2O[C@@H]3COP(=O)(O)O[C@H]3[C@H]2O)c(=O)[nH]1 [cGMP],–,–,Ratio of cGMP/cAMP hydrolysis ([6]; 1 μM substrate): 30; Km ([6]; substrate of the isolated PDE): 1.3 µM
